According to patent US9795695B2, “Process for the preparation of gadobenate dimeglumine complex in a solid form” (BRACCO IMAGING S.p.A., priority 2009, dated 2017):

Experiment: dissolution of the solid form in water
Assay type: physicochemical
Details: for time for dissolution in water: room temperature

Structure (SMILES)	ease of dissolution (in words) (aqueous solution)	water required to dissolve 1 g of product (per 1 g of product, room temperature (20° C. to 30° C.))	time for dissolution in water	time for dissolution in water (listed as powdered gadobenate)
CNC[C@H](O)[C@@H](O)[C@H](O)[C@H](O)CO.CNC[C@H](O)[C@@H](O)[C@H](O)[C@H](O)CO.O=C([O-])CN(CCN(CC(=O)[O-])CC(=O)O)CCN(CC(=O)O)C(COCc1ccccc1)C(=O)[O-].[Gd+3] (stereo not shown) [Comparative Example 2a, gadobenate dimeglumine]	difficult to collect and, in case, to re-dissolve			
CNC[C@H](O)[C@@H](O)[C@H](O)[C@H](O)CO.CNC[C@H](O)[C@@H](O)[C@H](O)[C@H](O)CO.O=C([O-])CN(CCN(CC(=O)[O-])CC(=O)O)CCN(CC(=O)O)C(COCc1ccccc1)C(=O)[O-].[Gd+3] (stereo not shown) [gadobenate dimeglumine]		less than 1 mL	few seconds	less than one minute
